Structures are written as SMILES.

The term IC50 denotes the point on the concentration scale where inhibition reaches its midpoint. As usually defined, the Ki is the dissociation constant of the complex between target and ligand, obtained from inhibition or displacement. Low readings indicate higher affinity, high ones lower affinity.

Assay [1] concerns the target T1, rat GPR14 (U-II receptor) (Rattus norvegicus, UniProt P49684).
T1 construct: expressed in transfected cells
T1 sequence (P49684 1-386): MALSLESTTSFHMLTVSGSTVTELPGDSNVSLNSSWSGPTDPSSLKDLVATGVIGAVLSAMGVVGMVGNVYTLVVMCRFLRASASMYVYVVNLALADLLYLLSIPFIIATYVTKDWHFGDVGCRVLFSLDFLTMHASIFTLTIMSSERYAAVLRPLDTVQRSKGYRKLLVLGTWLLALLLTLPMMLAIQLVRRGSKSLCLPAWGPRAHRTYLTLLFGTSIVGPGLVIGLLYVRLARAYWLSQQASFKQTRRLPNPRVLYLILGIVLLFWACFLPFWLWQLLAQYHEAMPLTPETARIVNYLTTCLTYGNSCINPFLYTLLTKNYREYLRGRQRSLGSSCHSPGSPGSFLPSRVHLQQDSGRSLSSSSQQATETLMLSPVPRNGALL
Description: Rat UII Calcium Mobilization FLIPR Assay. The format is cell-based. To be noted: average value for the compound tested; read-out: Rat UII FLIPR Average IC50. Put shortly: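 CHO cells stably expressing rat U-II receptor, seeded 24 h before assay, were loaded with FLIPR calcium dye in HBSS/20 mM HEPES/0.1% BSA/2.5 mM probenecid, pH 7.4, for 1 h at 37° C. Calcium mobilization then read by FLIPR at 23° C.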

Assay [2] has as its target T2, endogenous human UII receptor (Homo sapiens, UniProt Q9UKP6).
T2 sequence (Q9UKP6 1-389): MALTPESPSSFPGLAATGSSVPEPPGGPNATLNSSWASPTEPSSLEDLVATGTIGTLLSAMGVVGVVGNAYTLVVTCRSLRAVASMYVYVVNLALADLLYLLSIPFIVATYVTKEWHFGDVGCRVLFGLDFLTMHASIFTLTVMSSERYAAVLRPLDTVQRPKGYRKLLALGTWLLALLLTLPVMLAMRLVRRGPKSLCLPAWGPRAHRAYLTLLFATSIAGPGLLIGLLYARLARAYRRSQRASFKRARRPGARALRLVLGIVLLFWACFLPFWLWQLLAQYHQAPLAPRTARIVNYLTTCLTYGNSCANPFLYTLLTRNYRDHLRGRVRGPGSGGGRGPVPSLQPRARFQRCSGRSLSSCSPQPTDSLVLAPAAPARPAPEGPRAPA
Description: Human Radioligand Binding Assay ((^125I)-U-II binding to human skeletal muscle myoblasts).

Assay [3] concerns the target T3, Human UII receptor, 6D9 human rhabdomyosarcoma cells (Homo sapiens, UniProt Q9UKP6).
T3 construct: 6D9: isolated by dilution subcloning of RMS13 cells, ATCC® Number: CRL-2061; host or cells: 6D9 human rhabdomyosarcoma cells (subclone of RMS13)
T3 sequence (Q9UKP6 1-389): T2 sequence (Q9UKP6 1-389)
Kind of assay: Human UII Calcium Mobilization Assay. To be noted: average value, FLIPR TETRA, read-out: Human UII Ca^+ Mobilization Average IC50. It is filed as cell-based. The gist of the method:
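6D9 rhabdomyosarcoma cells loaded 45 min at 37° C with calcium dye (1.25 mM probenecid, 0.01% FBS, HBSS/20 mM HEPES). Antagonist and U-II agonist added at room temperature; FLIPR fluorescence read over 4 min; EC50/IC50 fitted. DMSO ≤0.1% final.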

`COc1ccc([C@@H](CCCNC(=O)[C@H]2CCCN2C(C)=O)N2C(=O)c3cccc(N4CCN([C@H](C)c5ccccc5)CC4)c3C2=O)cc1OC` [Cpd 149, (R)-1-acetyl-pyrrolidine-2-carboxylic acid (R)-(4-(3,4-dimethoxy-phenyl)-4-{1,3-dioxo-4-[4-(1R)-(1-phenyl-ethyl)-piperazin-1-yl]-1,3-dihydro-isoindol-2-yl}-butyl)-amide]: the half-inhibitory concentration (IC50) was 15 nM in assay [1] and 760 nM in assay [3]. For the same compound, the affinity in assay [2] corresponds to a Ki of 71 nM.
With `COc1ccc([C@@H](CCCNC(=O)c2ccccn2)N2C(=O)c3cccc(N4CCN([C@H](C)c5ccccc5)CC4)c3C2=O)cc1OC` [Cpd 150, (R)-pyridine-2-carboxylic acid (4-(3,4-dimethoxy-phenyl)-4-{1,3-dioxo-4-[4-(1R)-(1-phenyl-ethyl)-piperazin-1-yl]-1,3-dihydro-isoindol-2-yl}-butyl)-amide], the half-inhibitory concentration (IC50) in assay [1] came out at 38 nM; in assay [3], 860 nM. The compound also returned a Ki in assay [2] of 74 nM.
The like results for `COc1ccc([C@@H](CCCNC(=O)c2cccnc2)N2C(=O)c3cccc(N4CCN([C@H](C)c5ccccc5)CC4)c3C2=O)cc1OC` [Cpd 151, (R)-N-(4-(3,4-dimethoxy-phenyl)-4-{1,3-dioxo-4-[4-(1R)-(1-phenyl-ethyl)-piperazin-1-yl]-1,3-dihydro-isoindol-2-yl}-butyl)-nicotinamide] were, in that order, 14 nM, 1000 nM and 74 nM.
The matching figures for `COc1ccc([C@@H](CCCNC(=O)c2cncn2C)N2C(=O)c3cccc(N4CCN([C@H](C)c5ccccc5)CC4)c3C2=O)cc1OC` [Cpd 152, (R)-3-methyl-3H-imidazole-4-carboxylic acid (4-(3,4-dimethoxy-phenyl)-4-{1,3-dioxo-4-[4-(1R)-(1-phenyl-ethyl)-piperazin-1-yl]-1,3-dihydro-isoindol-2-yl}-butyl)-amide]: 17 nM, 660 nM and 69 nM.
The matching figures for `COc1ccc([C@@H](CCCNC(=O)c2cn(C)cn2)N2C(=O)c3cccc(N4CCN([C@H](C)c5ccccc5)CC4)c3C2=O)cc1OC` [Cpd 153, (R)-1-methyl-1H-imidazole-4-carboxylic acid (4-(3,4-dimethoxy-phenyl)-4-{1,3-dioxo-4-[4-(1R)-(1-phenyl-ethyl)-piperazin-1-yl]-1,3-dihydro-isoindol-2-yl}-butyl)-amide]: 13 nM, 1200 nM and 88 nM.
As to `COc1ccc([C@@H](CCCNC(=O)c2ccncc2)N2C(=O)c3cccc(N4CCN([C@H](C)c5ccccc5)CC4)c3C2=O)cc1OC` [Cpd 154, (R)-N-(4-(3,4-dimethoxy-phenyl)-4-{1,3-dioxo-4-[4-(1R)-(1-phenyl-ethyl)-piperazin-1-yl]-1,3-dihydro-isoindol-2-yl}-butyl)-isonicotinamide], the IC50 in assay [1] is 13 nM; in assay [3], 1200 nM. This compound showed a Ki in assay [2] of 84 nM.
In the case of `COc1ccc([C@@H](CCCNC(=O)C2CCCO2)N2C(=O)c3cccc(N4CCN([C@H](C)c5ccccc5)CC4)c3C2=O)cc1OC` (stereo partly drawn) [Cpd 155, (R)-tetrahydro-furan-2-carboxylic acid (4-(3,4-dimethoxy-phenyl)-4-{1,3-dioxo-4-[4-(1R)-(1-phenyl-ethyl)-piperazin-1-yl]-1,3-dihydro-isoindol-2-yl}-butyl)-amide], the 50% inhibitory concentration (IC50) worked out at 9.4 nM in assay [1] and 400 nM in assay [3]. In assay [2], this compound came in with a Ki of 45 nM.
The like results for `COc1ccc([C@@H](CCCNC(=O)c2csc(C)n2)N2C(=O)c3cccc(N4CCN([C@H](C)c5ccccc5)CC4)c3C2=O)cc1OC` [Cpd 156, (R)-2-methyl-thiazole-4-carboxylic acid (4-(3,4-dimethoxy-phenyl)-4-{1,3-dioxo-4-[4-(1R)-(1-phenyl-ethyl)-piperazin-1-yl]-1,3-dihydro-isoindol-2-yl}-butyl)-amide] were, in that order, 35 nM, 490 nM and 84 nM.
The matching figures for `COc1ccc([C@@H](CCCNC(=O)c2ccc(S(C)(=O)=O)s2)N2C(=O)c3cccc(N4CCN([C@H](C)c5ccccc5)CC4)c3C2=O)cc1OC` [Cpd 157, (R)-5-methanesulfonyl-thiophene-2-carboxylic acid (4-(3,4-dimethoxy-phenyl)-4-{1,3-dioxo-4-[4-(1R)-(1-phenyl-ethyl)-piperazin-1-yl]-1,3-dihydro-isoindol-2-yl}-butyl)-amide]: 32 nM, 680 nM and 260 nM.
The like results for `COc1ccc([C@@H](CCCNC(=O)c2conc2C)N2C(=O)c3cccc(N4CCN([C@H](C)c5ccccc5)CC4)c3C2=O)cc1OC` [Cpd 158, (R)-3-methyl-isoxazole-4-carboxylic acid (4-(3,4-dimethoxy-phenyl)-4-{1,3-dioxo-4-[4-(1R)-(1-phenyl-ethyl)-piperazin-1-yl]-1,3-dihydro-isoindol-2-yl}-butyl)-amide] were, in that order, 16 nM, 330 nM and 99 nM.
Turning to `COc1ccc([C@@H](CCCNC(=O)c2cc(C)on2)N2C(=O)c3cccc(N4CCN([C@H](C)c5ccccc5)CC4)c3C2=O)cc1OC` [Cpd 159, (R)-5-methyl-isoxazole-3-carboxylic acid (4-(3,4-dimethoxy-phenyl)-4-{1,3-dioxo-4-[4-(1R)-(1-phenyl-ethyl)-piperazin-1-yl]-1,3-dihydro-isoindol-2-yl}-butyl)-amide], the values for the IC50 in assay [1] and in assay [3] were 34 nM and 750 nM, respectively. Also, the Ki in assay [2] came to 150 nM.
The matching figures for `COc1ccc([C@@H](CCCNC(=O)c2ccnnc2)N2C(=O)c3cccc(N4CCN([C@H](C)c5ccccc5)CC4)c3C2=O)cc1OC` [Cpd 160, (R)-pyridazine-4-carboxylic acid (4-(3,4-dimethoxy-phenyl)-4-{1,3-dioxo-4-[4-(1R)-(1-phenyl-ethyl)-piperazin-1-yl]-1,3-dihydro-isoindol-2-yl}-butyl)-amide]: 12 nM, 400 nM and 140 nM.
The matching figures for `COc1ccc([C@@H](CCCNC(=O)c2nccn2C)N2C(=O)c3cccc(N4CCN([C@H](C)c5ccccc5)CC4)c3C2=O)cc1OC` [Cpd 161, (R)-1-methyl-1H-imidazole-2-carboxylic acid (4-(3,4-dimethoxy-phenyl)-4-{1,3-dioxo-4-[4-(1R)-(1-phenyl-ethyl)-piperazin-1-yl]-1,3-dihydro-isoindol-2-yl}-butyl)-amide]: 19 nM, 630 nM and 120 nM.
The like results for `COc1ccc([C@@H](CCCNC(=O)c2cc(C)c(C)o2)N2C(=O)c3cccc(N4CCN([C@H](C)c5ccccc5)CC4)c3C2=O)cc1OC` [Cpd 162, (R)-4,5-dimethyl-furan-2-carboxylic acid (4-(3,4-dimethoxy-phenyl)-4-{1,3-dioxo-4-[4-(1R)-(1-phenyl-ethyl)-piperazin-1-yl]-1,3-dihydro-isoindol-2-yl}-butyl)-amide] were, in that order, 35 nM, 430 nM and 170 nM.
Turning to `COc1ccc([C@@H](CCCNC(=O)c2cscn2)N2C(=O)c3cccc(N4CCN([C@H](C)c5ccccc5)CC4)c3C2=O)cc1OC` [Cpd 163, (R)-thiazole-4-carboxylic acid (4-(3,4-dimethoxy-phenyl)-4-{1,3-dioxo-4-[4-(1R)-(1-phenyl-ethyl)-piperazin-1-yl]-1,3-dihydro-isoindol-2-yl}-butyl)-amide], the 50% inhibitory concentration (IC50) in assay [1] amounted to 15 nM; in assay [3], 500 nM. Besides, affinity in assay [2] was put at a Ki of 95 nM.
The matching figures for `COc1ccc([C@@H](CCCNC(=O)c2c(C)noc2C)N2C(=O)c3cccc(N4CCN([C@H](C)c5ccccc5)CC4)c3C2=O)cc1OC` [Cpd 164, (R)-3,5-dimethyl-isoxazole-4-carboxylic acid (4-(3,4-dimethoxy-phenyl)-4-{1,3-dioxo-4-[4-(1R)-(1-phenyl-ethyl)-piperazin-1-yl]-1,3-dihydro-isoindol-2-yl}-butyl)-amide]: 13 nM, 300 nM and 100 nM.

(Values after patent publication US8193191B2, “Urotensin II receptor antagonists” (Janssen Pharmaceutica N.V., priority 2006, dated 2012).)
